From patent publication EP1262190A1, “RFRP-CONTAINING PROLACTIN SECRETION REGULATORY AGENT” (Takeda Chemical Industries, Ltd., priority 2000, dated 2001)
Where no end group is shown, it is not given here.

Tests used:
[1] = target: T1, r0T7T022L receptor-expressing CHO cells (Rattus norvegicus, UniProt Q9EP86); assay: Reaction of receptor-expressing CHO cells with peptides in the cytosensor (acidification rate); assay type: cell-based; conditions: peptide exposure for 7 minutes and 2 seconds, FIG. 8
T1 construct: expressed in transfected cells; host or cells: CHO cells
Text: The r0T7T022L receptor-expressing CHO cells obtained in REFERENCE EXAMPLE 7 (2) above were inoculated on capsules for cytosensor in 2.7 x 10^5 cells/capsule. After culturing overnight, the cytosensor was mounted to a work station for the cytosensor. A medium for assay (low buffered RMPI1640 medium supplemented with 0.1% bovine serum albumin), that was set in the flow path of the cytosensor, was supplied to the cells in a pump cycle of ON (80 seconds) and OFF (40 seconds). A rate of change in […] from 8 to 30 seconds after the pump stopped was calculated as an acidification rate. A change of the acidification rate with passage of time was monitored; when stable reading was obtained, the flow path was switched to expose each peptide to the cells for 7 minutes and 2 seconds. In the acidification rate of each well, the data for 3 cycles immediately before the peptide exposure was made 100% for standardization.

[2] = target: T2, Human 0T7T022 receptor-expressing CHO cells (Homo sapiens, UniProt Q9GZQ6); assay: Agonist activity of RF amide peptides: inhibition of forskolin-increased cAMP in human 0T7T022 receptor-expressing CHO cells; assay type: cell-based; conditions: 1 µM forskolin, 37°C for 30 minutes, FIG. 14
T2 construct: expressed in transfected cells; host or cells: CHO cells
Procedure: Human 0T7T022 receptor-expressing CHO cells obtained by a modification of the method described in WO 00/29441 were inoculated on a 24-well plate in a concentration of 3 x 10^5 cells/well. After incubation overnight, the cells were rinsed with Hanks' buffer (HBSS) supplemented with 0.05% BSA and 0.2 mM IBMX, and then preincubated at 37°C for 30 minutes in the same buffer. Next, the buffer was exchanged by Hanks' buffer (HBSS) supplemented with 0.05% BSA and 0.2 mM IBMX, or HBSS further added with 1 µM forskolin only, or HBSS added with 1 µM forskolin and peptide of various concentrations, followed by incubation at 37°C for 30 minutes. After completion of the incubation, cAMP in the cells of each well was extracted and quantified according to the method of cAMP EIA Kit (Amersham Inc.). An inhibition rate of the increased cAMP level in the cells by the forskolin treatment was calculated with the respective concentrations of the peptide.

[3] = tested on: pituitary hormone level in plasma; assay: Effect of administration into the third ventricle on pituitary hormone level in plasma (radioimmunoassay); assay type: in vivo, Wistar rats; conditions: 10 nmols into the third ventricle; for plasma prolactin level: vs PBS control
[4] = target: T2, Human 0T7T022 receptor-expressing CHO cells; assay: Effect of pertussis toxin on activation of human 0T7T022 receptor by RFRP peptide (cAMP production inhibition); assay type: cell-based; conditions: 0.1 µM peptide, 1 µM forskolin, cells treated with 100 ng/ml pertussis toxin, FIG. 15
Procedure: Human 0T7T022 receptor-expressing CHO cells obtained in EXAMPLE 8 were inoculated on a 24-well plate in a concentration of 1 x 10^5 cells/well. After culturing overnight, the medium was exchanged by a medium added with 100 ng/ml pertussis toxin (Sigma, Inc.) or with a control medium followed by further incubation overnight. The cells were rinsed with Hanks' buffer (HBSS) supplemented with 0.05% BSA and 0.2 mM IBMX and then preincubated at 37°C for 30 minutes in the same buffer. Next, the cells were incubated at 37°C for 30 minutes after the buffer was exchanged by Hanks' buffer alone (HBSS) supplemented with 0.05% BSA and 0.2 mM IBMX (black column), or by HBSS further added with 1 µM forskolin only (white column), or by HBSS added with 1 µM forskolin and 0.1 µM RFRP-1-12 (peptide having the 81 (Met) to 92 (Phe) amino acid sequence in SEQ ID NO:1) (hatched column). After completion of the incubation, cAMP in the cells of each well was extracted and quantified according to the method of cAMP EIA Kit (Amersham, Inc.).

T2 sequence (Q9GZQ6 whole entry): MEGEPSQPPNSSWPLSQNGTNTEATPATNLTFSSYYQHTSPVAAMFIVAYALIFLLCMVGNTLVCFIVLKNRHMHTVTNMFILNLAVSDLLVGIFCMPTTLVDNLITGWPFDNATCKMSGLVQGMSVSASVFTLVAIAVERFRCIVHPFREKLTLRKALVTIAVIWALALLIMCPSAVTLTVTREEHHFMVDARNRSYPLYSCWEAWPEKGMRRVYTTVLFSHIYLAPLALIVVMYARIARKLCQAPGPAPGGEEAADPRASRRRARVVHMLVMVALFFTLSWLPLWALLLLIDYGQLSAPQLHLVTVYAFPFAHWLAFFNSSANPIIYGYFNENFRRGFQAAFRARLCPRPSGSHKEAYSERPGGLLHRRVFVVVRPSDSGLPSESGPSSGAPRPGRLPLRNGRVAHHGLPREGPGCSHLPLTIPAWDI
T1 sequence (Q9EP86 whole entry): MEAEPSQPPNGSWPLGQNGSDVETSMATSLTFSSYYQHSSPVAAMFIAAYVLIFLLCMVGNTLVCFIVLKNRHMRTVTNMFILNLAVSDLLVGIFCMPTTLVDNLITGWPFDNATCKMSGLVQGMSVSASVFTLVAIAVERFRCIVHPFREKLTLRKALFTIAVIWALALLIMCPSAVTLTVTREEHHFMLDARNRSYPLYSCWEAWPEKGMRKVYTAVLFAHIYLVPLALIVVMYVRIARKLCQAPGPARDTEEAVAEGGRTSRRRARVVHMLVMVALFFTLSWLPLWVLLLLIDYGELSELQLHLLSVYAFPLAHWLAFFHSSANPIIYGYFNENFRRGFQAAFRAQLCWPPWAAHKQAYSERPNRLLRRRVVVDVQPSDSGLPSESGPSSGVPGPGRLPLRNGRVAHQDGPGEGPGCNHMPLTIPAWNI

Molecule: CC(C)C[C@H](NC(=O)[C@H](CC(N)=O)NC(=O)[C@@H]1CCCN1C(=O)[C@@H](N)C(C)C)C(=O)N1CCC[C@H]1C(=O)N[C@@H](CCC(N)=O)C(=O)N[C@@H](CCCNC(=N)N)C(=O)N[C@@H](Cc1ccccc1)C(N)=O
- reaction of r0T7T022L-expressing CHO cells (acidification rate) [1]: strongly showed dose-dependent reaction

Molecule: Asn-Pro-Phe-Phe [NPFF, reference compound]
- ED50 levels (inhibition rate of the increased cAMP level in the cells by the forskolin treatment) [2]: 140 nM

Molecule: MPHSFANLPLRF-NH2
- reaction of r0T7T022L-expressing CHO cells (acidification rate) [1]: strongly showed dose-dependent reaction
- level of ACTH in plasma [3]: none showed any significant change
- level of GH in plasma [3]: none showed any significant change
- level of LH in plasma [3]: none showed any significant change
- level of TSH in plasma [3]: none showed any significant change
- plasma prolactin level ([3]; 10 minutes after administration): tended to increase
- plasma prolactin level ([3]; 20 minutes after administration): significantly increased
- plasma prolactin level ([3]; 30 minutes after administration): significantly increased
- plasma prolactin level ([3]; 40 minutes after administration): significantly increased
- plasma prolactin level ([3]; 60 minutes after administration): a significant difference was noted
- cAMP production inhibiting activity [4]: lost

Molecule: Pro-Gln-Arg-Phe-NH2 (PQRF-NH2) [PQRFamide, reference compound]
- ED50 levels (inhibition rate of the increased cAMP level in the cells by the forskolin treatment) [2]: ≥ 1000 nM

Molecule: hRFRP-1-37: peptide having the 56 (Ser) to 92 (Phe) amino acid sequence in SEQ ID NO:1 (SLNFEELKDWGPKNVIKMSTPAVNKMPHSFANLPLRF; UniProt Q9HCQ7 56-92, looked up, fragment)
- ED50 levels (inhibition rate of the increased cAMP level in the cells by the forskolin treatment) [2]: 21 nM

Molecule: rRFRP-1-37: peptide having the 58 (Ser) to 94 (Phe) amino acid sequence in SEQ ID NO:50 (SVTFQELKDWGAKKDIKMSPAPANKVPHSAANLPLRF; UniProt Q9ESQ9 58-94, looked up, fragment)
- ED50 levels (inhibition rate of the increased cAMP level in the cells by the forskolin treatment) [2]: 30 nM
